Test results taken from ChEMBL document CHEMBL5050858, “Polyheterocyclic compounds as mettl3 inhibitors” (2021).

Target: METTL3/METTL14 (Homo sapiens, UniProt Q86U44)
Assay: Inhibition of full-length His-tagged METTL3 (unknown origin) coexpressed with full-length FLAG-tagged METTL14 (unknown origin) expressed in baculovirus expression system using 5'P-uacacucgaucuggacuaaagcugcuc-3' RNA as substrate pre-incubated for 10 mins and followed by substrate addition and measured after 60 mins by methyltransferase assay

Chain of METTL3/METTL14 (Q86U44 whole entry): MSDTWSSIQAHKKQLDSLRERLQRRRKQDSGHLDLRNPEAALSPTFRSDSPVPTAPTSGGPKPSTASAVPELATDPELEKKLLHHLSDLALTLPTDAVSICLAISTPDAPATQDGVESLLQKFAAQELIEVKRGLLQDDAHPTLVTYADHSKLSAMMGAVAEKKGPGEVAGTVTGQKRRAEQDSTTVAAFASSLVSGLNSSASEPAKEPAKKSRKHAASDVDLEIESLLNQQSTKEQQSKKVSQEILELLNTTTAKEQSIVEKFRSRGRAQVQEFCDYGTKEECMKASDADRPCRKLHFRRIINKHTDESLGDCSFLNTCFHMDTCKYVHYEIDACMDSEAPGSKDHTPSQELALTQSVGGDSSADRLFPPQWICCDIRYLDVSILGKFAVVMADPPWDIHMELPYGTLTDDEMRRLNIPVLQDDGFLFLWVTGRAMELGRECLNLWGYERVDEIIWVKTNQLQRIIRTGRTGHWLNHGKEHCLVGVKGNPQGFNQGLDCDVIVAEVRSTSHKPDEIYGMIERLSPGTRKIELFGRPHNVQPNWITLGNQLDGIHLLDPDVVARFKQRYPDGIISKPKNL
Chain of METTL3/METTL14 (Q9HCE5 whole entry, further chain): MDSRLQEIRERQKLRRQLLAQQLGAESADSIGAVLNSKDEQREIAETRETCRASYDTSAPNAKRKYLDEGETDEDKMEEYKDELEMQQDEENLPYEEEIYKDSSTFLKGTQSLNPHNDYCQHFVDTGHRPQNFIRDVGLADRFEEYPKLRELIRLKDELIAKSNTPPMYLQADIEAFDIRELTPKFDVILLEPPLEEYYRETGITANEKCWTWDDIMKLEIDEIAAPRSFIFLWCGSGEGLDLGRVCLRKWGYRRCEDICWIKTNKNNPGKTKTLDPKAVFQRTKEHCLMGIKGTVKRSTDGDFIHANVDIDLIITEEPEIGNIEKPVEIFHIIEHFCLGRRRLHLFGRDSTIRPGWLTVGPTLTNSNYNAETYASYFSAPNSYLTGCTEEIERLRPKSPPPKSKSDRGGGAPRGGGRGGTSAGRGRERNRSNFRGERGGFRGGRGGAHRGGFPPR

Compound | IC50
O=C(NCc1ccc2cc(CCN3CC4(CCC4)C3)[nH]c2c1)c1cc(=O)n2ccccc2n1 | 118 nM
O=C(NCc1ccc2cc(CN3CC(C4CC4)C3)[nH]c2c1)c1cc(=O)n2ccccc2n1 | 9.24 nM
